# Data published in patent US9656990B2, “Cathepsin cysteine protease inhibitors” (Merck Sharp & Dohme Corp., priority 2014, dated 2017).
# Assays:
# human cathepsin K = human cathepsin K (UniProt P43236, Y175D/V274L, species not given); assay: Cathepsin K Assay; type: biochemical; settings: IP from dose response curve; Z-Leu-Arg-AMC substrate, pH 5.5; read-out: hrbCat K (IP (nM))
# human cathepsin F = biological target: T1, human cathepsin F (Homo sapiens, UniProt Q9UBX1); assay: Cathepsin F Assay; type: biochemical; settings: IP from dose response curve; Z-Phe-Arg-AMC substrate, pH 5.5; read-out: hCat F (IP (nM))
# T1 sequence (Q9UBX1 271-484): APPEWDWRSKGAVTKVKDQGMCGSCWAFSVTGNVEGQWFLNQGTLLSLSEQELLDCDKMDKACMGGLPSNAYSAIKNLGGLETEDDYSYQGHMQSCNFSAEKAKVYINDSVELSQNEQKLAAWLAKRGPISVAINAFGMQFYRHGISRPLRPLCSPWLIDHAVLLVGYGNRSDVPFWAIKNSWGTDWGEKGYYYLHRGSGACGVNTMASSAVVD
# Procedure: Serial dilutions (1/3) from 500 μM down to 0.025 μM of test compounds were prepared in dimethyl sulfoxide (DMSO). Then 0.5 μL of DMSO from each dilution were added to 18.75 μL of assay buffer (MES, 50 mM (pH 5.5); EDTA, 2.5 mM; DTT, 2.5 mM and 10% DMSO) containing human cathepsin F (10 nM) in assay buffer solution. The assay solutions were mixed for 5-10 seconds on a shaker plate and incubated for 15 minutes at room temperature. Z-Phe-Arg-AMC (8 μM) in 6.25 μL of assay buffer was added to the assay solutions. Hydrolysis of the coumarin leaving group (AMC) was followed by spectrofluorometry (Exλ=360 nm; Emλ=460 nm) for 20 minutes. Percent of inhibition were calculated by fitting experimental values to standard mathematical model for dose response curve.
SMILES,IC50 (human cathepsin K) [nM],IC50 (human cathepsin F) [nM]
"Cc1c(-c2ccc(N3CCS(=O)(=O)CC3)cc2)c([C@@H]2CCC(F)(F)C[C@H]2C(=O)NC2(C#N)CC2)nn1-c1ccc(F)cc1 [Example 26, (1R,2R)-N-(1-cyanocyclopropyl)-2-(4-(4-(1,1-dioxidothiomorpholino)phen-yl)-1-(4-fluorophenyl)-5-methyl-1H-pyrazol-3-yl)-5,5-difluorocyclohexanecarbox-amide]",0.67,168
"N#CC1(NC(=O)[C@@H]2CCCC[C@H]2c2nn(-c3ccccc3F)cc2-c2ccc(N3CCS(=O)(=O)CC3)cc2)CC1 [Example 98, (1R,2R)-N-(1-cyanocyclopropyl)-2-(4-(4-(1,1-dioxidothiomorpholino)phen-yl)-1-(2-fluorophenyl)-1H-pyrazol-3-yl)cyclohexanecarboxamide]",0.91,946
"CN=S1(=O)CCN(c2ccc(-c3cn(-c4ccc(F)cn4)nc3[C@@H]3CC(F)(F)CC[C@H]3C(=O)NC3(C#N)CC3)cc2)CC1 [Example 9, (1R,2R)—N-(1-Cyanocyclopropyl)-4,4-difluoro-2-(1-(5-fluoropyridin-2-yl)-4-(4-(1-(methylimino)-1-oxidothiomorpholino)phenyl)-1H-pyrazol-3-yl)cyclohexanecarboxamide]",2.56,3670
"N#Cc1ccc(-n2cc(-c3ccc(N4CCS(=O)(=O)CC4)cc3)c([C@@H]3CCCC[C@H]3C(=O)NC3(C#N)CC3)n2)cc1 [Example 100, (1R,2R)-N-(1-cyanocyclopropyl)-2-(1-(4-cyanophenyl)-4-(4-(1,1-dioxidothiomorpholino)phen-yl)-1H-pyrazol-3-yl)cyclohexanecarboxamide]",0.87,212
"CC(C)[C@@H](C#N)NC(=O)[C@@H]1CCC(F)(F)C[C@H]1c1nn(-c2ncccc2F)cc1-c1ccc(N2CCS(=N)(=O)CC2)cc1 [Example 35, (1R,2R)-N-((S)-1-cyano-2-methylpropyl)-4,4-difluoro-2-(1-(3-fluoropyridin-2-yl)-4-(4-(1-imino-1-oxidothiomorpholino)phenyl)-1H-pyrazol-3-yl)cyclohexanecarboxamide]",9.69,4890
"CC(C)[C@@H](C#N)NC(=O)[C@@H]1CCC(F)(F)C[C@H]1c1nn(-c2ncccc2F)cc1-c1ccc(N2CCS(=O)(=O)CC2)cc1 [Example 32, (1R,2R)-N-((S)-1-cyano-2-methylpropyl)-2-(4-(4-(1,1-dioxidothiomorpholino)phen-yl)-1-(3-fluoropyridin-2-yl)-1H-pyrazol-3-yl)-4,4-difluorocyclohexanecarbox-amide]",7.11,2780
"CS(=O)(=O)c1ccc(-c2cn(-c3ccc(F)cc3)nc2C2CCC(F)(F)CC2C(=O)NCC#N)cc1 (racemic) [Example 77, (1R,2R and 1S,2S)-N-(cyanomethyl)-5,5-difluoro-2-(1-(4-fluorophenyl)-4-(4-(methylsulfonyl)phenyl)-1H-pyrazol-3-yl)cyclohexanecarboxamide]",1.24,9
"CC(C)(C)N=S1(=O)CCN(c2ccc(-c3cn(-c4ccc(F)cc4)nc3[C@@H]3CCCC[C@H]3C(=O)NC3(C#N)CC3)cc2)CC1 [Example 18, (1R,2R)-2-(4-(4-(1-(tert-butylimino)-1-oxidothiomorpholino)phenyl)-1-(4-fluorophenyl)-1H-pyrazol-3-yl)-N-(1-cyanocyclopropyl)cyclohex-anecarboxamide]",5,1290
"N#CC1(NC(=O)[C@@H]2CCCC[C@H]2c2nn(-c3cnc(O)nc3)cc2-c2ccc(N3CCS(=O)(=O)CC3)cc2)CC1 [Example 170, (1R,2R)-N-(1-cyanocyclopropyl)-2-(4-(4-(1,1-dioxidothiomorpholino)phen-yl)-1-(2-hydroxypyrimidin-5-yl)-1H-pyrazol-3-yl)cyclohexanecarboxamide]",1.88,2530
"CN=S1(=O)CCN(c2ccc(-c3cn(-c4ccc(F)cn4)nc3[C@@H]3CC[C@H](F)C[C@H]3C(=O)NC3(C#N)CC3)cc2)CC1 [Example 37, (1R,2R,5S)-N-(1-cyanocyclopropyl)-5-fluoro-2-(1-(5-fluoropyridin-2-yl)-4-(4-(1-(methylimino)-1-oxidothiomorpholino)phenyl)-1H-pyrazol-3-yl)cyclohexanecarboxamide]",1.76,1660
"Cc1c(-c2ccc(N3CCS(=O)(=O)CC3)cc2)c([C@@H]2CCC(F)(F)C[C@H]2C(=O)NC2(C#N)CC2)nn1-c1ccc(F)cn1 [Example 27, (1R,2R)-N-(1-cyanocyclopropyl)-2-(4-(4-(1,1-dioxidothiomorpholino)phen-yl)-1-(5-fluoropyridin-2-yl)-5-methyl-1H-pyrazol-3-yl)-5,5-difluorocyclohexanecarbox-amide]",1.28,170
"N#CC1(NC(=O)[C@@H]2CC3CC3C[C@H]2c2nn(-c3ccc(F)cn3)cc2-c2ccc(N3CCS(=O)(=O)CC3)cc2)CC1 (single isomer, unassigned) [Example 152, (1S,3R,4R,6R) or (1R,3R,4R,6S)-N-(1-cyanocyclopropyl)-4-(4-(4-(1,1-dioxidothiomorpholino)phen-yl)-1-(5-fluoropyridin-2-yl)-1H-pyrazol-3-yl)bicyclo[4.1.0]heptane-3-carboxamide]",1.06,338
"N#CC1(NC(=O)[C@@H]2C[C@@H](F)CC[C@H]2c2nn(-c3ccc(F)cn3)cc2-c2ccc(N3CCS(=N)(=O)CC3)cc2)CC1 [Example 59, (1R,2R,5S)-N-(1-cyanocyclopropyl)-5-fluoro-2-(1-(5-fluoropyridin-2-yl)-4-(4-(1-imino-1-oxidothiomorpholino)phenyl)-1H-pyrazol-3-yl)cyclohexanecarboxamide]",1.29,2460
"CC(C)OC(=O)N1CC(c2ccc(-c3cn(-c4ccc(F)cc4)nc3[C@@H]3CCCC[C@H]3C(=O)NC3(C#N)CC3)cc2)C1 [Example 6, Isopropyl 3-(4-(3-((1R,2R)-2-((1-cyanocyclopropyl)carbamoyl)cyclohexyl)-1-(4-fluorophenyl)-1H-pyrazol-4-yl)phenyl)azetidine-1-carboxylate]",0.53,49
"N#CC1(NC(=O)[C@@H]2CCCC[C@H]2c2nn(-c3ccc(C(F)(F)F)cc3)cc2-c2ccc(N3CCS(=O)(=O)CC3)cc2)CC1 [Example 121, (1R,2R)-N-(1-cyanocyclopropyl)-2-(4-(4-(1,1-dioxidothiomorpholino)phen-yl)-1-(4-(trifluoromethyl)phenyl)-1H-pyrazol-3-yl)cyclohexanecarboxamide]",3.08,649
"N#CC1(NC(=O)[C@@H]2C[C@@H](F)CC[C@H]2c2nn(-c3ccc(F)cc3)cc2-c2ccc(N3CCS(=O)(=O)CC3)cc2)CC1 [Example 112, (1R,2R,5S)-N-(1-cyanocyclopropyl)-2-(4-(4-(1,1-dioxidothiomorpholino)phen-yl)-1-(4-fluorophenyl)-1H-pyrazol-3-yl)-5-fluorocyclohexanecarboxamide]",1.33,922
"N#CC1(NC(=O)[C@@H]2CCCC[C@H]2c2nn(-c3cc(F)c(F)c(F)c3)cc2-c2ccc(N3CCS(=O)(=O)CC3)cc2)CC1 [Example 128, (1R,2R)-N-(1-cyanocyclopropyl)-2-(4-(4-(1,1-dioxidothiomorpholino)phen-yl)-1-(3,4,5-trifluorophenyl)-1H-pyrazol-3-yl)cyclohexanecarboxamide]",0.79,319
